Assays:
[1] = test system: oat, wild; test: Test C preemergence; format: in vivo, Avena fatua; conditions: for Oat, Wild plant response rating: 500 g ai/ha, preemergence, 0 to 100 scale (0 no effect, 100 complete control); for Plant response rating, Oat, Wild: Preemergence, 125 g ai/ha, 0 to 100 scale, 0 no effect, 100 complete control
Outline: (§1)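 Visual injury ratings on a 0–100 scale (100 = complete control) were made against untreated controls 10 days after treatment in the greenhouse. Compounds, formulated with surfactant in non-phytotoxic solvent, were sprayed on soil preemergence or onto one- to two-leaf plants 2–10 cm tall postemergence.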

[2] = test system: blackgrass; test: Test C postemergence; format: in vivo, Alopecurus myosuroides; conditions: 10 days, 0 to 100 scale (0 no effect, 100 complete control)
Outline: as §1

[3] = test system: sedge, umbrella; test: Test D flooded paddy test; format: in vivo, Cyperus difformis; conditions: 250 g ai/ha, applied to paddy water, visual rating after 13 to 14 days, scale 0 to 100 (0 no effect, 100 complete control)
Outline: (§2)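 2-leaf plants; flood 3 cm above soil; compound dosed into paddy water; greenhouse 13–14 d; visual rating vs controls, 0–100 (100 = complete control); dash = not tested.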

[4] = test system: corn; test: Test C postemergence; format: in vivo, Zea mays; conditions: 10 days, 0 to 100 scale (0 no effect, 100 complete control)
Outline: as §1

[5] = test system: foxtail, giant; test: Test C postemergence; format: in vivo, Setaria faberi; conditions: 10 days, 0 to 100 scale (0 no effect, 100 complete control)
Outline: as §1

[6] = test system: blackgrass; test: Test C preemergence; format: in vivo, Alopecurus myosuroides; conditions: for Blackgrass plant response rating: 500 g ai/ha, preemergence, 0 to 100 scale (0 no effect, 100 complete control); for Plant response rating, Blackgrass: Preemergence, 125 g ai/ha, 0 to 100 scale, 0 no effect, 100 complete control
Outline: as §1

[7] = test system: ragweed; test: Test C preemergence; format: in vivo, Ambrosia artemisiifolia; conditions: for Ragweed plant response rating: 500 g ai/ha, preemergence, 0 to 100 scale (0 no effect, 100 complete control); for Plant response rating, Ragweed: Preemergence, 125 g ai/ha, 0 to 100 scale, 0 no effect, 100 complete control
Outline: as §1

[8] = test system: foxtail, giant; test: Test C preemergence; format: in vivo, Setaria faberi; conditions: for Foxtail, Giant plant response rating: 500 g ai/ha, preemergence, 0 to 100 scale (0 no effect, 100 complete control); for Plant response rating, Foxtail, Giant: Preemergence, 125 g ai/ha, 0 to 100 scale, 0 no effect, 100 complete control
Outline: as §1

[9] = test system: wheat; test: Test C preemergence; format: in vivo, Triticum aestivum; conditions: for Wheat plant response rating: 500 g ai/ha, preemergence, 0 to 100 scale (0 no effect, 100 complete control); for Plant response rating, Wheat: Preemergence, 125 g ai/ha, 0 to 100 scale, 0 no effect, 100 complete control
Outline: as §1

[10] = test system: wheat; test: Test C postemergence; format: in vivo, Triticum aestivum; conditions: 10 days, 0 to 100 scale (0 no effect, 100 complete control)
Outline: as §1

[11] = test system: horseweed; test: Test C postemergence; format: in vivo, Erigeron canadensis; conditions: 10 days, 0 to 100 scale (0 no effect, 100 complete control)
Outline: as §1

[12] = test system: pigweed, palmer; test: Test C preemergence; format: in vivo, Amaranthus palmeri; conditions: for Pigweed, Palmer plant response rating: 500 g ai/ha, preemergence, 0 to 100 scale (0 no effect, 100 complete control); for Plant response rating, Pigweed, Palmer: Preemergence, 125 g ai/ha, 0 to 100 scale, 0 no effect, 100 complete control
Outline: as §1

[13] = test system: ragweed; test: Test C postemergence; format: in vivo, Ambrosia artemisiifolia; conditions: 10 days, 0 to 100 scale (0 no effect, 100 complete control)
Outline: as §1

[14] = test system: ducksalad; test: Test D flooded paddy test; format: in vivo, Heteranthera limosa; conditions: 250 g ai/ha, applied to paddy water, visual rating after 13 to 14 days, scale 0 to 100 (0 no effect, 100 complete control)
Outline: as §2

[15] = test system: barnyardgrass; test: Test C preemergence; format: in vivo, Echinochloa crusgalli; conditions: for Barnyardgrass plant response rating: 500 g ai/ha, preemergence, 0 to 100 scale (0 no effect, 100 complete control); for Plant response rating, Barnyardgrass: Preemergence, 125 g ai/ha, 0 to 100 scale, 0 no effect, 100 complete control
Outline: as §1

[16] = test system: pigweed, palmer; test: Test C postemergence; format: in vivo, Amaranthus palmeri; conditions: 10 days, 0 to 100 scale (0 no effect, 100 complete control)
Outline: as §1

[17] = test system: oat, wild; test: Test C postemergence; format: in vivo, Avena fatua; conditions: 10 days, 0 to 100 scale (0 no effect, 100 complete control)
Outline: as §1

[18] = test system: ryegrass, Italian; test: Test C postemergence; format: in vivo, Lolium multiflorum; conditions: 10 days, 0 to 100 scale (0 no effect, 100 complete control)
Outline: as §1

[19] = test system: rice; test: Test D flooded paddy test; format: in vivo, Oryza sativa; conditions: 250 g ai/ha, applied to paddy water, visual rating after 13 to 14 days, scale 0 to 100 (0 no effect, 100 complete control)
Outline: as §2

[20] = test system: ryegrass, Italian; test: Test C preemergence; format: in vivo, Lolium multiflorum; conditions: for Ryegrass, Italian plant response rating: 500 g ai/ha, preemergence, 0 to 100 scale (0 no effect, 100 complete control); for Plant response rating, Ryegrass, Italian: Preemergence, 125 g ai/ha, 0 to 100 scale, 0 no effect, 100 complete control
Outline: as §1

[21] = test system: barnyardgrass; test: Test D flooded paddy test; format: in vivo, Echinochloa crus-galli; conditions: 250 g ai/ha, applied to paddy water, visual rating after 13 to 14 days, scale 0 to 100 (0 no effect, 100 complete control)
Outline: as §2

[22] = test system: soybean; test: Test C preemergence; format: in vivo, Glycine max; conditions: for Soybean plant response rating: 500 g ai/ha, preemergence, 0 to 100 scale (0 no effect, 100 complete control); for Plant response rating, Soybean: Preemergence, 125 g ai/ha, 0 to 100 scale, 0 no effect, 100 complete control
Outline: as §1

[23] = test system: soybean; test: Test C postemergence; format: in vivo, Glycine max; conditions: 10 days, 0 to 100 scale (0 no effect, 100 complete control)
Outline: as §1

[24] = test system: galium; test: Test C postemergence; format: in vivo, Galium aparine; conditions: 10 days, 0 to 100 scale (0 no effect, 100 complete control)
Outline: as §1

[25] = test system: barnyardgrass; test: Test C postemergence; format: in vivo, Echinochloa crusgalli; conditions: 10 days, 0 to 100 scale (0 no effect, 100 complete control)
Outline: as §1

[26] = test system: kochia; test: Test C preemergence; format: in vivo, Bassia scoparia; conditions: for Kochia plant response rating: 500 g ai/ha, preemergence, 0 to 100 scale (0 no effect, 100 complete control); for Plant response rating, Kochia: Preemergence, 125 g ai/ha, 0 to 100 scale, 0 no effect, 100 complete control
Outline: as §1

[27] = test system: corn; test: Test C preemergence; format: in vivo, Zea mays; conditions: for Corn plant response rating: 500 g ai/ha, preemergence, 0 to 100 scale (0 no effect, 100 complete control); for Plant response rating, Corn: Preemergence, 125 g ai/ha, 0 to 100 scale, 0 no effect, 100 complete control
Outline: as §1

[28] = test system: kochia; test: Test C postemergence; format: in vivo, Bassia scoparia; conditions: 10 days, 0 to 100 scale (0 no effect, 100 complete control)
Outline: as §1

## CCc1ncn(-c2cccc(C(=O)N3CC(C(F)(F)F)Oc4c(Cl)cccc43)c2)n1 (centres unmarked) [Compound 345]
[1]
  Oat, Wild plant response rating: 80
  Plant response rating, Oat, Wild: 10
[2]; 500 g ai/ha, postemergence
  Plant response rating, Blackgrass: 90
[2]; Postemergence, 125 g ai/ha
  Plant response rating, Blackgrass: 50
[3]
  Plant response rating, Sedge, Umbrella (Flood): 60
[4]; 500 g ai/ha, postemergence
  Plant response rating, Corn: 80
[4]; Postemergence, 125 g ai/ha
  Plant response rating, Corn: 30
[5]; 500 g ai/ha, postemergence
  Plant response rating, Foxtail, Giant: 90
[5]; Postemergence, 125 g ai/ha
  Plant response rating, Foxtail, Giant: 60
[6]
  Blackgrass plant response rating: 90
  Plant response rating, Blackgrass: 80
[7]
  Ragweed plant response rating: 0
  Plant response rating, Ragweed: 0
[8]
  Foxtail, Giant plant response rating: 100
  Plant response rating, Foxtail, Giant: 90
[9]
  Wheat plant response rating: 10
  Plant response rating, Wheat: 0
[10]; 500 g ai/ha, postemergence
  Plant response rating, Wheat: 30
[10]; Postemergence, 125 g ai/ha
  Plant response rating, Wheat: 20
[11]; 500 g ai/ha, postemergence
  Plant response rating, Horseweed: 30
[11]; Postemergence, 125 g ai/ha
  Plant response rating, Horseweed: 0
[12]
  Pigweed, Palmer plant response rating: 100
  Plant response rating, Pigweed, Palmer: 100
[13]; 500 g ai/ha, postemergence
  Plant response rating, Ragweed: 60
[13]; Postemergence, 125 g ai/ha
  Plant response rating, Ragweed: 40
[14]
  Plant response rating, Ducksalad (Flood): 65
[15]
  Barnyardgrass plant response rating: 100
  Plant response rating, Barnyardgrass: 60
[16]; 500 g ai/ha, postemergence
  Plant response rating, Pigweed, Palmer: 80
[16]; Postemergence, 125 g ai/ha
  Plant response rating, Pigweed, Palmer: 60
[17]; 500 g ai/ha, postemergence
  Plant response rating, Oat, Wild: 30
[17]; Postemergence, 125 g ai/ha
  Plant response rating, Oat, Wild: 20
[18]; 500 g ai/ha, postemergence
  Plant response rating, Ryegrass, Italian: 80
[18]; Postemergence, 125 g ai/ha
  Plant response rating, Ryegrass, Italian: 60
[19]
  Plant response rating, Rice (Flood): 10
[20]
  Ryegrass, Italian plant response rating: 90
  Plant response rating, Ryegrass, Italian: 80
[21]
  Plant response rating, Barnyardgrass (Flood): 40
[22]
  Soybean plant response rating: 100
  Plant response rating, Soybean: 30
[23]; 500 g ai/ha, postemergence
  Plant response rating, Soybean: 100
[23]; Postemergence, 125 g ai/ha
  Plant response rating, Soybean: 100
[24]; 500 g ai/ha, postemergence
  Plant response rating, Galium: 100
[24]; Postemergence, 125 g ai/ha
  Plant response rating, Galium: 100
[25]; 500 g ai/ha, postemergence
  Plant response rating, Barnyardgrass: 60
[25]; Postemergence, 125 g ai/ha
  Plant response rating, Barnyardgrass: 30
[26]
  Kochia plant response rating: 100
  Plant response rating, Kochia: 50
[27]
  Corn plant response rating: 30
  Plant response rating, Corn: 10
[28]; 500 g ai/ha, postemergence
  Plant response rating, Kochia: 90
[28]; Postemergence, 125 g ai/ha
  Plant response rating, Kochia: 80

## C=C(C)c1cc(C(=O)N2C[C@H](C)Oc3c(Cl)cccc32)cc(-n2cncn2)c1 [Compound 317]
[1]
  Oat, Wild plant response rating: 40
  Plant response rating, Oat, Wild: 0
[2]; 500 g ai/ha, postemergence
  Plant response rating, Blackgrass: 60
[2]; Postemergence, 125 g ai/ha
  Plant response rating, Blackgrass: 0
[3]
  Plant response rating, Sedge, Umbrella (Flood): 0
[4]; 500 g ai/ha, postemergence
  Plant response rating, Corn: 40
[4]; Postemergence, 125 g ai/ha
  Plant response rating, Corn: 10
[5]; 500 g ai/ha, postemergence
  Plant response rating, Foxtail, Giant: 70
[5]; Postemergence, 125 g ai/ha
  Plant response rating, Foxtail, Giant: 10
[6]
  Blackgrass plant response rating: 50
  Plant response rating, Blackgrass: 0
[7]
  Ragweed plant response rating: 0
  Plant response rating, Ragweed: 0
[8]
  Foxtail, Giant plant response rating: 90
  Plant response rating, Foxtail, Giant: 10
[9]
  Wheat plant response rating: 0
  Plant response rating, Wheat: 0
[10]; 500 g ai/ha, postemergence
  Plant response rating, Wheat: 20
[10]; Postemergence, 125 g ai/ha
  Plant response rating, Wheat: 10
[11]; 500 g ai/ha, postemergence
  Plant response rating, Horseweed: 0
[11]; Postemergence, 125 g ai/ha
  Plant response rating, Horseweed: 0
[12]
  Pigweed, Palmer plant response rating: 90
  Plant response rating, Pigweed, Palmer: 20
[13]; 500 g ai/ha, postemergence
  Plant response rating, Ragweed: 0
[13]; Postemergence, 125 g ai/ha
  Plant response rating, Ragweed: 0
[14]
  Plant response rating, Ducksalad (Flood): 0
[15]
  Barnyardgrass plant response rating: 50
  Plant response rating, Barnyardgrass: 0
[16]; 500 g ai/ha, postemergence
  Plant response rating, Pigweed, Palmer: 50
[16]; Postemergence, 125 g ai/ha
  Plant response rating, Pigweed, Palmer: 10
[17]; 500 g ai/ha, postemergence
  Plant response rating, Oat, Wild: 30
[17]; Postemergence, 125 g ai/ha
  Plant response rating, Oat, Wild: 0
[18]; 500 g ai/ha, postemergence
  Plant response rating, Ryegrass, Italian: 40
[18]; Postemergence, 125 g ai/ha
  Plant response rating, Ryegrass, Italian: 0
[19]
  Plant response rating, Rice (Flood): 0
[20]
  Ryegrass, Italian plant response rating: 60
  Plant response rating, Ryegrass, Italian: 40
[21]
  Plant response rating, Barnyardgrass (Flood): 0
[22]
  Soybean plant response rating: 0
  Plant response rating, Soybean: 0
[23]; 500 g ai/ha, postemergence
  Plant response rating, Soybean: 100
[23]; Postemergence, 125 g ai/ha
  Plant response rating, Soybean: 70
[24]; 500 g ai/ha, postemergence
  Plant response rating, Galium: 70
[24]; Postemergence, 125 g ai/ha
  Plant response rating, Galium: 50
[25]; 500 g ai/ha, postemergence
  Plant response rating, Barnyardgrass: 70
[25]; Postemergence, 125 g ai/ha
  Plant response rating, Barnyardgrass: 10
[26]
  Kochia plant response rating: 0
  Plant response rating, Kochia: 0
[27]
  Corn plant response rating: 10
  Plant response rating, Corn: 0
[28]; 500 g ai/ha, postemergence
  Plant response rating, Kochia: 70
[28]; Postemergence, 125 g ai/ha
  Plant response rating, Kochia: 20

Reference: patent US20260262643A1, “HERBICIDAL BENZOXAZINES” (FMC CORPORATION, priority 2022, published 2026)
